This is an account of results in US8022091B2, “Triazole derivative” (Taisho Pharmaceutical Co., Ltd., priority 2006, dated 2011).

T1 sequence (P21453 whole entry): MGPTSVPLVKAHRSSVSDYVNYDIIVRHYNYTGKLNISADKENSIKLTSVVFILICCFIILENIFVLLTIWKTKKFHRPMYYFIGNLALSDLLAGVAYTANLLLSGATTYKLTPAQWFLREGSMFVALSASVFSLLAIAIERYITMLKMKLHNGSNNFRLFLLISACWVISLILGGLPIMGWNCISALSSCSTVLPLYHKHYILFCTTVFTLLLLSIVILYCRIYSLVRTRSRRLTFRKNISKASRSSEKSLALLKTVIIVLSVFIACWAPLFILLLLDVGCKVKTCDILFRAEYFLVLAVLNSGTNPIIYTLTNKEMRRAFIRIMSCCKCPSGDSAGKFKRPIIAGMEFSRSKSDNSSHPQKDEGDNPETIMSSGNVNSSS

The first assay concerns the target T1, human Edg-1 (S1P1) (Homo sapiens, UniProt P21453).
T1 construct: expressed in transfected cells; host or cells: HEK-293
As to the kind of experiment: S1P1 binding assay: inhibition of [33P]-S1P binding to membrane fraction of HEK-293 cells transferred with the human Edg-1 (S1P1) gene. Conditions: [33P]-S1P 0.1 nM, human Edg-1 (S1P1) HEK-293 membrane fraction, 1 h at 30° C.; read-out: IC50 (concentration at which binding in the absence of the test compound was inhibited by 50%). A digest of the protocol: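 With 0.1 nM [33P]-S1P and compound (10^−5M single point, or a concentration range for IC50) in 0.1% DMSO, membrane fractions from human Edg-1-expressing HEK-293 cells were treated for one hour at 30° C in 20 mM Tris-HCl pH 7.4 with NaF, deoxypyridoxine and BSA. Bound label was measured after filtration, with untransfected-cell background subtracted.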
Consider `CCn1c(Oc2cccc(N3CCN(C)CC3)c2)nnc1[C@@H](C)NS(=O)(=O)c1ccc2c(c1)CCC2` [Compound 678], for which the IC50 came out at 10.2 nM.

The same assay, now with this note: test compound 10 μM; inhibition of [33P]-S1P binding, membrane fraction.
A word on the inhibition: it is the drop in the measured response relative to a control, in per cent. As for `CCn1c(Oc2cccc(N3CCN(C)CC3)c2)nnc1[C@@H](C)NS(=O)(=O)c1cc(C)ccc1OC` [Compound 562], the inhibition at 10 µM amounted to 93.3%. With `CCn1c(Oc2ccc3cc[nH]c3c2)nnc1[C@@H](C)NS(=O)(=O)c1ccc(OC(F)F)cc1` [Compound 434], the inhibition at 10 µM was 79.5%.

`CCn1c(Oc2cccc(N3CCN(C)CC3)c2)nnc1[C@@H](C)NS(=O)(=O)c1cc(C)c(Cl)cc1C` [Compound 510]: the inhibition at 10 µM was found to be 114%. Take `CCn1c(Oc2cccc(N3CCN(C)CC3)c2)nnc1[C@@H](C)NS(=O)(=O)c1ccc(OC)c(OC)c1` [Compound 513]: the inhibition at 10 µM was 96.6%. Same read-out and setting: under `CCn1c(Oc2ccc3cc[nH]c3c2)nnc1[C@@H](C)NS(=O)(=O)c1cc(F)cc(F)c1` [Compound 437] stands 97.3%. Still for that read-out and setting: to `CCn1c(Oc2ccc3cc[nH]c3c2)nnc1[C@@H](C)NS(=O)(=O)c1cnn(-c2ccccc2)c1C` [Compound 468] belongs 56.2%. The same measure, in the same setting: to `CCn1c(Oc2ccc3cc[nH]c3c2)nnc1[C@@H](C)NS(=O)(=O)c1cc(C)ccc1F` [Compound 451] belongs 76.8%; to `CCn1c(Oc2cccc(N3CCN(C)CC3)c2)nnc1[C@@H](C)NS(=O)(=O)c1ccc(OC)cc1` [Compound 518], 111%. As to `CCn1c(Oc2ccc3cc[nH]c3c2)nnc1[C@@H](C)NS(=O)(=O)c1cccc(C(C)=O)c1` [Compound 477], the inhibition at 10 µM was found to be 58.1%. The same measure, in the same setting: to `CCn1c(Oc2cccc(N3CCN(C)CC3)c2)nnc1[C@@H](C)NS(=O)(=O)c1ccc(F)cc1Br` [Compound 609] belongs 93.1%; to `CCn1c(Oc2cccc(N3CCN(C)CC3)c2)nnc1[C@@H](C)NS(=O)(=O)c1cc(C)c(Cl)cc1Cl` [Compound 588], 109%. As for `CCn1c(Oc2cccc(N3CCN(C)CC3)c2)nnc1[C@@H](C)NS(=O)(=O)c1c(C)nn(C)c1C` [Compound 544], the inhibition at 10 µM was 53.9%. In the case of `CCn1c(Oc2cccc(N3CCN(C)CC3)c2)nnc1[C@@H](C)NS(=O)(=O)c1ccc2c(c1)C(C)(C)CCC2(C)C` [Compound 676], the inhibition at 10 µM came out at 92.6%. Still for that read-out and setting: to `CCn1c(Oc2ccc3cc[nH]c3c2)nnc1[C@@H](C)NS(=O)(=O)c1cc(Cl)c(F)cc1F` [Compound 417] belongs 90.8%; to `CCn1c(Oc2cccc(N3CCN(C)CC3)c2)nnc1[C@@H](C)NS(=O)(=O)CCCOc1ccc(OC)cc1` [Compound 618], 65.4%; to `CCn1c(Oc2cccc(N3CCN(C)CC3)c2)nnc1[C@@H](C)NS(=O)(=O)c1cc(F)c(F)cc1F` [Compound 596], 100%. For `CCn1c(Oc2cccc(N3CCN(C)CC3)c2)nnc1[C@@H](C)NS(=O)(=O)c1ccc2c(c1)OCCCO2` [Compound 674], the inhibition at 10 µM was determined as 97%. `CCn1c(Oc2cccc(N3CCN(C)CC3)c2)nnc1[C@@H](C)NS(=O)(=O)c1ccc(C#N)cc1Cl` [Compound 576]: the inhibition at 10 µM amounted to 81.4%. On the same count and under the same terms, under `CCn1c(Oc2cccc(N3CCN(C)CC3)c2)nnc1[C@@H](C)NS(=O)(=O)c1cccc2nsnc12` [Compound 632] stands 59.9%; under `CCn1c(Oc2cccc(N3CCN(C)CC3)c2)nnc1[C@@H](C)NS(=O)(=O)c1ccc(F)c(F)c1` [Compound 581], 99.9%; under `CCn1c(Oc2cccc(N3CCN(C)CC3)c2)nnc1[C@@H](C)NS(=O)(=O)c1ccc(Br)cc1Br` [Compound 600], 100%. Same read-out and setting: to `CCn1c(Oc2cccc(N3CCN(C)CC3)c2)nnc1[C@@H](C)NS(=O)(=O)c1cc(F)c(Br)cc1F` [Compound 557] belongs 107%; to `CCn1c(Oc2ccc3cc[nH]c3c2)nnc1[C@@H](C)NS(=O)(=O)c1ccc(Br)c(F)c1` [Compound 447], 95.5%; to `CCn1c(Oc2ccc3cc[nH]c3c2)nnc1[C@@H](C)NS(=O)(=O)c1ccc(-c2ccno2)s1` [Compound 429], 71.1%. Regarding `CCn1c(Oc2cccc(N3CCN(C)CC3)c2)nnc1[C@@H](C)NS(=O)(=O)c1cnn(-c2ccccc2)c1C` [Compound 637], the inhibition at 10 µM was determined as 50.6%. On to `CCn1c(Oc2cccc(N3CCN(C)CC3)c2)nnc1[C@@H](C)NS(=O)(=O)c1ccc(Br)c(C(F)(F)F)c1` [Compound 657], for which the inhibition at 10 µM came to 94.9%. Same read-out and setting: under `CCn1c(Oc2cccc(N3CCN(C)CC3)c2)nnc1[C@@H](C)NS(=O)(=O)c1ccc(F)cc1F` [Compound 568] stands 71.1%. Still for that read-out and setting: under `CCn1c(Oc2ccc3cc[nH]c3c2)nnc1[C@@H](C)NS(=O)(=O)c1ccc(F)c(C#N)c1` [Compound 432] stands 84.2%; under `CCn1c(Oc2cccc(N3CCN(C)CC3)c2)nnc1[C@@H](C)NS(=O)(=O)c1ccc2cc(C)ccc2c1` [Compound 668], 98.6%; under `CCn1c(Oc2cccc(N3CCN(C)CC3)c2)nnc1[C@@H](C)NS(=O)(=O)c1ccc(F)cc1Cl` [Compound 570], 77.4%. `CCn1c(Oc2cccc(N3CCN(C)CC3)c2)nnc1[C@@H](C)NS(=O)(=O)c1ccc2c(c1)CCC2` [Compound 678]: the inhibition at 10 µM was determined as 97.4%.

As for `CCn1c(Oc2ccc3cc[nH]c3c2)nnc1[C@@H](C)NS(=O)(=O)c1ccc(Cl)cc1Cl` [Compound 398], the inhibition at 10 µM was found to be 84.7%.

Still in this assay, the particulars now being: test compound at 10 μM; inhibition of [33P]-S1P binding to the membrane fraction of HEK-293 cells expressing human Edg-1 (S1P1).
For the compound `CCc1ccc(S(=O)(=O)N[C@H](C)c2nnc(Oc3ccc(F)cc3)n2CC)cc1` [Compound 172], the inhibition at 10 µM was found to be 92%. Regarding `CCn1c(Oc2ccc3cc[nH]c3c2)nnc1[C@@H](C)NS(=O)(=O)c1ccc2c(c1)CN(C(=O)C(F)(F)F)CC2` [Compound 366], the inhibition at 10 µM was determined as 63.2%. Same read-out and setting: to `CCn1c(Oc2ccc(F)cc2)nnc1[C@@H](C)NS(=O)(=O)c1ccc(F)cc1` [Compound 173] belongs 97.2%. On the same count and under the same terms, under `CCn1c(Oc2ccc(F)cc2)nnc1[C@@H](C)NS(=O)(=O)c1cc(Br)c(F)cc1F` [Compound 244] stands 94.6%; under `CCn1c(Oc2ccc(F)cc2)nnc1[C@@H](C)NS(=O)(=O)c1ccc(C(F)(F)F)cc1Br` [Compound 270], 73%; under `CCn1c(Oc2ccc3cc[nH]c3c2)nnc1[C@@H](C)NS(=O)(=O)c1cccc(Br)c1` [Compound 333], 102%.

In the case of `CCn1c(Oc2ccc(F)cc2)nnc1[C@@H](C)NS(=O)(=O)c1ccccc1` [Compound 155], the inhibition at 10 µM turned out to be 59.9%. On to `CCn1c(Oc2ccc3cc[nH]c3c2)nnc1[C@@H](C)NS(=O)(=O)CCc1cccc2ccccc12` [Compound 353], for which the inhibition at 10 µM was determined as 92.3%. For the compound `CCn1c(Oc2ccc(F)cc2)nnc1[C@@H](C)NS(=O)(=O)c1cc(C(F)(F)F)cc(C(F)(F)F)c1` [Compound 212], the inhibition at 10 µM was determined as 69.7%. Turning to `CCn1c(Oc2ccc3cc[nH]c3c2)nnc1[C@@H](C)NS(=O)(=O)c1c(C)cc(C)cc1C` [Compound 347], the inhibition at 10 µM came out at 50.1%. Same read-out and setting: to `CCn1c(Oc2ccc(F)cc2)nnc1[C@@H](C)NS(=O)(=O)c1cc(F)c(Br)cc1F` [Compound 216] belongs 88.9%; to `CCn1c(Oc2ccc3cc[nH]c3c2)nnc1[C@@H](C)NS(=O)(=O)c1cccc(C#N)c1` [Compound 338], 69.2%; to `CCn1c(Oc2ccc3cc[nH]c3c2)nnc1[C@@H](C)NS(=O)(=O)c1cc(Cl)cc(Cl)c1` [Compound 383], 83.6%. Turning to `CCn1c(Oc2ccc(F)cc2)nnc1[C@@H](C)NS(=O)(=O)c1cc(Br)ccc1Br` [Compound 257], the inhibition at 10 µM was 78.2%.

On to `CCn1c(Oc2ccc(F)cc2)nnc1[C@@H](C)NS(=O)(=O)c1ccc(Cl)c(S(N)(=O)=O)c1` [Compound 314], for which the inhibition at 10 µM amounted to 52.2%. Same read-out and setting: to `CCn1c(Oc2ccc(F)cc2)nnc1[C@@H](C)NS(=O)(=O)c1cc(Br)ccc1OC` [Compound 218] belongs 74.7%; to `CCn1c(Oc2ccc3cc[nH]c3c2)nnc1[C@@H](C)NS(=O)(=O)c1cc(Cl)c(Cl)cc1Cl` [Compound 357], 106%; to `CCn1c(Oc2ccc(F)cc2)nnc1[C@@H](C)NS(=O)(=O)c1ccc(C(F)(F)F)cc1Cl` [Compound 303], 77.4%. For `CCn1c(Oc2ccc3cc[nH]c3c2)nnc1[C@@H](C)NS(=O)(=O)c1ccc(Br)cc1` [Compound 329], the inhibition at 10 µM turned out to be 101%. `CCn1c(Oc2ccc3cc[nH]c3c2)nnc1[C@@H](C)NS(=O)(=O)c1cccc2ccccc12` [Compound 352]: the inhibition at 10 µM was found to be 88.5%. Same read-out and setting: under `CCn1c(Oc2ccc(F)cc2)nnc1[C@@H](C)NS(=O)(=O)c1ccc(F)c(F)c1F` [Compound 237] stands 64.8%; under `CCn1c(Oc2ccc(F)cc2)nnc1[C@@H](C)NS(=O)(=O)c1cccc(Cl)c1Cl` [Compound 209], 91.4%. `CCn1c(Oc2ccc3cc[nH]c3c2)nnc1[C@@H](C)NS(=O)(=O)c1cc(C)ccc1C` [Compound 367]: the inhibition at 10 µM is 94.3%.

For `CCn1c(Oc2ccc(F)cc2)nnc1[C@@H](C)NS(=O)(=O)c1ccc(C)c(Cl)c1` [Compound 127], the inhibition at 10 µM is 94.4%.

As to `CCn1c(Sc2ccc(C)cc2)nnc1[C@@H](C)NS(=O)(=O)c1ccc(Cl)c(Cl)c1` [Compound 55, 3,4-Dichloro-N-[(R)-1-(4-ethyl-5(4-methylbenzenesulfanyl)-4H-[1,2,4]triazol-3-yl)-ethyl]-benzenesulfonamide], the inhibition at 10 µM stood at 80.6%.

In the case of `CCn1c(Oc2ccc(F)cc2)nnc1[C@@H](C)NS(=O)(=O)c1ccsc1` [Compound 294], the inhibition at 10 µM was 50.8%.

As for `CCn1c(Oc2ccc(F)cc2)nnc1[C@@H](C)NS(=O)(=O)c1cccc(OC(F)F)c1` [Compound 264], the inhibition at 10 µM amounted to 95.9%.
